Experimental data: patent US9682978B2, “2,6,7 substituted purines as HDM2 inhibitors” (Merck Sharp & Dohme Corp., priority 2013, dated 2017)

Biological target: T1, HDM2 (Homo sapiens, UniProt Q00987)
T1 construct: Thioredoxin (N); made in house; host or cells: E. coli BL21(DE3)Rosetta (pET32a)
Test: HDM2 FRET assay (inhibition of p53 peptide binding to HDM2)
Details: for IC50: truncated HDM2 residues 17 to 125, 0.5 nM HDM2, 3 nM FITC labeled 8-mer peptide, two hour incubation
Excerpt: Methods: An HDM2 FRET assay was developed to assess the compounds' inhibitory activity towards binding of p53 protein. A truncated version of HDM2 with residues 17 to 125 (containing p53 binding surface, Science (1994) 265, 346-355), with N-terminal His and Thioredoxin tag was generated in pET32a expression vector and expressed in E. coli strain BL21(DE3)Rosetta. Protein was purified using Ni-affinity chromatography, followed by size exclusion chromatography using Superdex 75 26/60 column. To assess inhibition of p53 binding to HDM2, a FITC labeled 8-mer peptide (sequence: Ac-Phe-Arg-Dpr-Ac6c-(6-Br)Trp-Glu-Glu-Leu-NH2; Anal Biochem. 2004 Aug. 1; 331(1):138-46) with strong affinity towards p53 binding pocket of HDM2 was used. The HDM2 assay buffer contained 1× Phosphate Buffered Saline (Invitrogen, Cat#14190), 0.01% BSA (Jackson ImmunoResearch, Cat#001-000-162), 0.01% Tween-20. In the 1× assay buffer recombinant HDM2 protein, peptide and Lumi4-Tb Cryptate-conjugate mouse anti-6×HIS antibody (cisbio, Cat#Tb61HISTLB) were added and transferred to ProxiPlate PLUS (PerkinElmer, Cat#6008269), containing compounds so that final DMSO concentration is 0.1%. Final concentrations of reagents in the assay wells are 0.5 nM HDM2, 0.25 nM anti HIS (Tb label) antibody and 3 nM peptide. After two hour incubation at room temperature in a humidified chamber plates were read on EnVision plate reader with the following settings: excitation: UV, […], two emission filters: 520 nm and 495 nm respectively. Ratio of em520/em495 was used to calculate % inhibition and to obtain IC50 with 4-parameter logistic equation.
IC50 DETERMINATIONS: Dose-response curves were plotted from the inhibition data, from 10 point serial dilutions of inhibitory compounds. Concentration of compound was plotted against em520/Cem495 ratio signal. To generate IC50 values, the dose-response curves were fitted to a standard sigmoidal curve and IC50 values were derived by nonlinear regression analysis. IC50 values in the above table are rounded to the nearest integer.

T1 sequence (Q00987 17-125): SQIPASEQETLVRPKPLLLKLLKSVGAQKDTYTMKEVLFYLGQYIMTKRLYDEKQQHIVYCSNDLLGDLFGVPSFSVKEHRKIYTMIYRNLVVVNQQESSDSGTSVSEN

| SMILES | IC50 (Table 3) [nM] | IC50 (Table 2) [nM] | other results |
| --- | --- | --- | --- |
| CC1(C)CCCN(c2nc(-c3noc(=O)[nH]3)nc3ncn(C[C@H]4CC[C@H](C)CC4)c23)C1 [Example 1.12, 3-{6-(3,3-dimethylpiperidin-1-yl)-7-[(trans-4-methylcyclohexyl)methyl]-7H-purin-2-yl}-1,2,4-oxadiazol-5(4H)-one] |  |  | inhibition at 1 µM (Table 1, printed in the FRET IC50 column, at 1000 nM compound): 43% |
| C[C@@H](Nc1nc(-c2n[nH]c(=O)o2)nc2ncn(C[C@H]3CC[C@H](C)CC3)c12)C1CCC1 [Example 1.15, 5-(6-{[(1R)-1-cyclobutylethyl]amino}-7-[(trans-4-methylcyclohexyl)methyl]-7H-purin-2-yl)-1,3,4-oxadiazol-2(3H)-one] |  |  | IC50 (Table 1): 52.5 nM |
| C[C@H]1CC[C@H](Cn2cnc3nc(-c4noc(=O)[nH]4)nc(Oc4cccc(Cl)c4)c32)CC1 [Example 1.5, 3-{6-(3-chlorophenoxy)-7-[(trans-4-methylcyclohexyl)methyl]-7H-purin-2-yl}-1,2,4-oxadiazol-5(4H)-one] |  |  | IC50 (Table 1): 392 nM |
| C[C@@H]1CC[C@@H](Cn2cnc3nc(-c4noc(=O)[nH]4)nc(N[C@H](C)C4CCC4)c32)CC1(F)F (stereo in doubt) [Example 3.5, 3-(6-{[(1R)-1-cyclobutylethyl]amino}-7-{[(trans)-3,3-difluoro-4-methylcyclohexyl]methyl}-7H-purin-2-yl)-1,2,4-oxadiazol-5(4H)-one] | 198 |  |  |
| CCC1CCC(Cn2cnc3nc(-c4noc(=O)[nH]4)nc(N[C@H](C)C4CCC4)c32)C1 (single isomer, unassigned) [Example 3.14] | 189 |  |  |
| COCCOc1cc(Cl)cc(-c2nc(-c3n[nH]c(=O)o3)nc3ncn(C[C@H]4CC[C@H](C)CC4)c23)c1 [Example 2.23, 5-{6-[3-chloro-5-(2-methoxyethoxy)phenyl]-7-[(trans-4-methylcyclohexyl)methyl]-7H-purin-2-yl}-1,3,4-oxadiazol-2(3H)-one] |  | 132 |  |
| CC1CCC(Cn2cnc3nc(-c4noc(=O)[nH]4)nc(N[C@H](C)C4CCC4)c32)C1 (mixture of isomers) [Example 3.9, 3-(6-{[(1R)-1-cyclobutylethyl]amino}-7-[(3-methylcyclopentyl)methyl]-7H-purin-2-yl)-1,2,4-oxadiazol-5(4H)-one] | 1640 |  |  |
| C[C@H]1CC[C@H](Cn2cnc3nc(-c4noc(=O)[nH]4)nc(-c4cc(Cl)cc(C#N)c4)c32)CC1 [Example 2.4, 3-chloro-5-{7-[(trans-4-methylcyclohexyl)methyl]-2-(5-oxo-4,5-dihydro-1,2,4-oxadiazol-3-yl)-7H-purin-6-yl}benzonitrile] |  | 413 |  |
| COc1cc(Cl)cc(-c2nc(-c3noc(=O)[nH]3)nc3ncn(C[C@H]4CC[C@H](C)CC4)c23)c1 [Example 2.6, 3-{6-(3-chloro-5-methoxyphenyl)-7-[(trans-4-methylcyclohexyl)methyl]-7H-purin-2-yl}-1,2,4-oxadiazol-5(4H)-one] |  | 312 |  |
| C[C@@H](Nc1nc(-c2n[nH]c(=O)n2C)nc2ncn(C[C@H]3CC[C@H](C)CC3)c12)C1CCC1 [Example 1.16, 5-(6-{[(1R)-1-cyclobutylethyl]amino}-7-[(trans-4-methylcyclohexyl)methyl]-7H-purin-2-yl)-4-methyl-2,4-dihydro-3H-1,2,4-triazol-3-one] |  |  | IC50 (Table 1): 241 nM |
| C[C@@H]1CC[C@@H](Cn2cnc3nc(-c4noc(=O)[nH]4)nc(-c4cccc(Cl)c4)c32)CC1(F)F (single isomer, unassigned) [Example 3.16, 3-[6-(3-chlorophenyl)-7-{[(trans)-3,3-difluoro-4-methylcyclohexyl]methyl}-7H-purin-2-yl]-1,2,4-oxadiazol-5(4H)-one] | 848 |  |  |
| C[C@H]1CC[C@H](Cn2cnc3nc(-c4noc(=O)[nH]4)nc(-c4cccc(C#N)c4)c32)CC1 [Example 2.9, 3-{7-[(trans-4-methylcyclohexyl)methyl]-2-(5-oxo-4,5-dihydro-1,2,4-oxadiazol-3-yl)-7H-purin-6-yl}benzonitrile] |  | 518 |  |
| CC([C@H]1CC[C@H](C)CC1)n1cnc2nc(-c3noc(=O)[nH]3)nc(N[C@H](C)C3CCC3)c21 (single isomer, unassigned) [Example 3.17] | 421 |  |  |
| C[C@H]1CC[C@H](Cn2cnc3nc(-c4noc(=O)[nH]4)nc(-c4ccnc(Cl)c4F)c32)CC1 [Example 2.2, 3-{6-(2-chloro-3-fluoropyridin-4-yl)-7-[(trans-4-methylcyclohexyl)methyl]-7H-purin-2-yl}-1,2,4-oxadiazol-5(4H)-one] |  | 134 |  |
| C[C@H]1CC[C@H](Cn2cnc3nc(-c4noc(=O)[nH]4)nc(-c4ccnc(Cl)c4)c32)CC1 [Example 2.15, 3-{6-(2-chloropyridin-4-yl)-7-[(trans-4-methylcyclohexyl)methyl]-7H-purin-2-yl}-1,2,4-oxadiazol-5(4H)-one] |  | 188 |  |
| C=C1CCC(Cn2cnc3nc(C(=O)O)nc(N[C@H](C)C4CCC4)c32)CC1 [Example 3.8, 6-{[(1R)-1-cyclobutylethyl]amino}-7-[(4-methylidenecyclohexyl)methyl]-7H-purine-2-carboxylic acid] | 677 |  |  |
| C[C@H]1CC[C@H](Cn2cnc3nc(-c4noc(=O)[nH]4)nc(-c4cccc(Br)c4)c32)CC1 [Example 2.8, 3-{6-(3-bromophenyl)-7-[(trans-4-methylcyclohexyl)methyl]-7H-purin-2-yl}-1,2,4-oxadiazol-5(4H)-one] |  | 157 |  |
| C[C@@H](Nc1nc(-c2noc(=O)[nH]2)nc2ncn(CC3CCC4(CC3)CC4)c12)C1CCC1 [Example 3.3, 3-[6-{[(1R)-1-cyclobutylethyl]amino}-7-(spiro[2.5]oct-6-ylmethyl)-7H-purin-2-yl]-1,2,4-oxadiazol-5(4H)-one] | 1430 |  |  |
| COCOc1cc(Cl)cc(-c2nc(-c3noc(=O)[nH]3)nc3ncn(C[C@H]4CC[C@H](C)CC4)c23)c1 [Example 2.14, 3-{6-[3-chloro-5-(methoxymethoxy)phenyl]-7-[(trans-4-methylcyclohexyl)methyl]-7H-purin-2-yl}-1,2,4-oxadiazol-5(4H)-one] |  | 41.7 |  |
| C[C@@H](Nc1nc(C(=O)O)nc2ncn(Cc3cc4ccccc4s3)c12)C1CC1 [Example 1.8, 7-(1-benzothiophen-2-ylmethyl)-6-{[(1R)-1-cyclopropylethyl]amino}-7H-purine-2-carboxylic acid] |  |  | IC50 (Table 1): 2420 nM |
| CCC1CCC(Cn2cnc3nc(C(=O)O)nc(N[C@H](C)C4CCC4)c32)C1 (single isomer, unassigned) [Example 3.13] | 510 |  |  |
| C[C@@H](Nc1nc(C(=O)O)nc2ncn(Cc3ccc(C(F)(F)F)cc3)c12)C1CC1 [Example 1.1, 6-{[(1R)-1-cyclopropylethyl]amino}-7-[4-(trifluoromethyl)benzyl]-7H-purine-2-carboxylic acid] |  |  | IC50 (Table 1): 1140 nM |
| C[C@H]1CC[C@H](Cn2cnc3nc(-c4noc(=O)[nH]4)nc(-c4cc(O)cc(Cl)c4)c32)CC1 [Example 2.7, 3-{6-(3-chloro-5-hydroxyphenyl)-7-[(trans-4-methylcyclohexyl)methyl]-7H-purin-2-yl}-1,2,4-oxadiazol-5(4H)-one] |  | 111 |  |
| CC([C@H]1CC[C@H](C)CC1)n1cnc2nc(-c3noc(=O)[nH]3)nc(N[C@H](C)C3CCC3)c21 (stereo partly drawn) [Example 3.18, 3-(6-{[(1R)-1-cyclobutylethyl]amino}-7-[1-(trans-4-methylcyclohexyl)ethyl]-7H-purin-2-yl)-1,2,4-oxadiazol-5(4H)-one] | 17 |  |  |
